Tests used:
[1] = MSL combination lemon oil emulsions, high shear homogenizer; format: physicochemical; details: 5 weight % surfactant, 1 weight % lemon oil, one week at 25° C.
Method: In addition to testing single MSL emulsification through tracking nanoemulsion stability, MSL combinations were investigated. These emulsions were processed with a high shear homogenizer at 13,500 rpm. One example of this MSL combination formulation included 5 weight % surfactant, 1 weight % lemon oil, and 94% deionized water. The pure form of this formulation included 5 weight % SL-hexyl ester. The combination form of this formulation included 2.5 weight % SL-hexyl ester and 2.5 weight % SL-ethyl ester. […] The size of droplets within this emulsion was 2.5 μm. […] The size of droplets within the combination emulsion was 8.4 nm.

[2] = Lemon oil solubilization, sonication, droplet size by dynamic light scattering; format: physicochemical
Method: MSL's used in this example are SL-hexyl ester (16), SL-octyl ester SL (17), and SL-dodecyl ester (18). To test the MSL capacity for lemon oil solubilization, the volume ratio of water to lemon oil, the concentration of surfactant, and the homogenization time (using a sonicator as the means of homogenization) were varied. Concentration of surfactant is calculated on a w/w basis relative to the mass of water being used. To form emulsions, the MSL or other surfactant is first dissolved in the water, oil is added to the solution, and finally the contents of the water/surfactant+oil system is sonicated. Subsequently, the emulsion is allowed to settle for 24 hours at 25° C. before measurements or visual observations are made.
To evaluate the stability of lemon oil solubilization, photographs of emulsions were recorded daily (after the initial 24 hours). Visual observations consisted of assessing solution clarity, extent of creaming and whether oil separation occurs. After selected time periods measurement of emulsion droplet size was performed by dynamic light scattering, which gives an average droplet size in the solution. […] If the emulsion had creamed (separated into two discreet emulsion layers) the average droplet size for each emulsion layer was determined. The results of this study are listed in Table 6, where the first number represents average droplet size in the top emulsion layer and the second represents the average droplet size in the bottom emulsion layer. […] A better performing emulsifier for this study is defined as functioning to form emulsions with smaller average particle size after the aging period.

[3] = Crude oil clearing/displacement activity; details: 20 μL of 1 mg/mL solution
[4] = Crude oil emulsification activity (turbidity at 610 nm); details: emulsifier 1 mg/mL
Method: Emulsification activity was assessed using Louisiana Crude, Arabian Light Crude, and Prudhoe Bay Crude as the oil phase. A 2 mL solution with emulsifier concentration of 1 mg/mL was prepared. A crude oil (10 mg) was added to the emulsifier aqueous solution, the mixture was vortexed for one minute and the emulsified mixture was allowed to stand for 20 minutes. Emulsification activity was determined by measuring turbidity of the emulsion mixture in a spectrophotometer at 610 nm. The results obtained using SL-ethyl ester, SL-butyl ester, the natural sophorolipid mixture and Triton X-100 as emulsifiers are expressed as D610 and are listed in Table 8. […] Furthermore, a remarkable improvement in emulsification activity was obtained for SL-butyl ester relative to the natural sophorolipid mixture. These comparative results for emulsification of Louisiana Crude, Arabian Light Crude, and Prudhoe Bay Crude oil phase could not be anticipated by one skilled in the art.

[5] = lemon oil/water 1/99, sonication 120 sec, 0.5 wt %, 1 Month
[6] = lemon oil/water 5/95, sonication 60 sec, 0.25 weight-%, 1 Month
[7] = lemon oil/water 5/95, sonication 60 sec, 1 weight-%, 1 Month
[8] = lemon oil/water 5/95, sonication 60 sec, 1 weight-%, 1 Week
[9] = lemon oil/water 5/95, sonication 120 sec, 0.25 weight-%, 1 Month
[10] = lemon oil/water 5/95, sonication 120 sec, 0.5 weight-%, 1 Month
[11] = lemon oil/water 5/95, sonication 120 sec, 0.5 weight-%, 1 Week
[12] = lemon oil/water 5/95, sonication 120 sec, 1 weight-%, 1 Month
[13] = lemon oil/water 5/95, sonication 120 sec, 1 weight-%, 1 Week

Structure (SMILES): CCCCCCOC(=O)CCCCCCCC=CCCCCCCC(C)OC1OC(CO)C(O)C(O)C1OC1OC(CO)C(O)C(O)C1O (centres unmarked) [Compound 16, SL-Hexyl Ester]
- size of droplets within the emulsion ([1]; 94% deionized water): 2.5 μm
- appearance of the emulsion [1]: completely opaque
- average droplet sizes after one month ([2]; lemon oil emulsions, after one month): below 1 μm
- Emulsion Droplet Size ([2]; lemon oil/water 1/99, sonication 60 sec, 0.25 weight-%, 1 Month): 138 nm
- Emulsion Droplet Size ([2]; lemon oil/water 1/99, sonication 60 sec, 0.25 weight-%, 1 Week): 200 nm
- Emulsion Droplet Size ([2]; lemon oil/water 1/99, sonication 60 sec, 1 weight-%, 1 Month): 52 nm
- Emulsion Droplet Size ([2]; lemon oil/water 1/99, sonication 60 sec, 1 weight-%, 1 Week): 22 nm
- Emulsion Droplet Size ([2]; lemon oil/water 1/99, sonication 120 sec, 0.25 weight-%, 1 Month): 105 nm
- Emulsion Droplet Size ([2]; lemon oil/water 1/99, sonication 120 sec, 0.25 weight-%, 1 week): 149 nm
- Emulsion Droplet Size, bottom emulsion layer [2, 5]: 82 nm
- Emulsion Droplet Size, top emulsion layer [2, 5]: 287 nm
- Emulsion Droplet Size ([2]; lemon oil/water 1/99, sonication 120 sec, 0.5 wt %, 1 Week): 255 nm
- Emulsion Droplet Size ([2]; lemon oil/water 1/99, sonication 120 sec, 1 weight-%, 1 Month): 26 nm
- Emulsion Droplet Size ([2]; lemon oil/water 1/99, sonication 120 sec, 1 weight-%, 1 Week): 20 nm
- Emulsion Droplet Size, bottom emulsion layer [2, 6]: 177 nm
- Emulsion Droplet Size, top emulsion layer [2, 6]: 506 nm
- Emulsion Droplet Size ([2]; lemon oil/water 5/95, sonication 60 sec, 0.25 weight-%, 1 week): 330 nm
- Emulsion Droplet Size, bottom emulsion layer [2, 7]: 32 nm
- Emulsion Droplet Size, top emulsion layer [2, 7]: 471 nm
- Emulsion Droplet Size, bottom emulsion layer [2, 8]: 112 nm
- Emulsion Droplet Size, top emulsion layer [2, 8]: 313 nm
- Emulsion Droplet Size, bottom emulsion layer [2, 9]: 166 nm
- Emulsion Droplet Size, top emulsion layer [2, 9]: 450 nm
- Emulsion Droplet Size ([2]; lemon oil/water 5/95, sonication 120 sec, 0.25 weight-%, 1 week): 325 nm
- Emulsion Droplet Size, bottom emulsion layer [2, 10]: 120 nm
- Emulsion Droplet Size, top emulsion layer [2, 10]: 505 nm
- Emulsion Droplet Size, bottom emulsion layer [2, 11]: 29 nm
- Emulsion Droplet Size, top emulsion layer [2, 11]: 320 nm
- Emulsion Droplet Size, bottom emulsion layer [2, 12]: 25 nm
- Emulsion Droplet Size, top emulsion layer [2, 12]: 518 nm
- Emulsion Droplet Size, bottom emulsion layer [2, 13]: 246 nm
- Emulsion Droplet Size, top emulsion layer [2, 13]: 336 nm

Structure (SMILES): CCCCOC(=O)CCCCCCCC=CCCCCCCC(C)OC1OC(CO)C(O)C(O)C1OC1OC(CO)C(O)C(O)C1O (centres unmarked) [Compound 8, SL-Butyl Ester]
- Oil displacement activity (diameter of the clearing zone) ([3]; Arabian Light Crude on sea water): 6.7 ± 0.14 cm
- Oil displacement activity (diameter of the clearing zone) ([3]; Louisiana Crude on sea water): 8.7 ± 0.35 cm
- Oil displacement activity (diameter of the clearing zone) ([3]; Prudhoe Bay Crude on sea water): 7.5 cm
- Emulsification activity (D610) ([4]; Arabian Crude): 1.77
- Emulsification activity (D610) ([4]; Louisiana Crude): 1.50
- Emulsification activity (D610) ([4]; Prudhoe Crude): 1.58
